Reference: patent publication US20230114728A1 (Venatorx Pharmaceuticals, Inc., priority 2019, published 2023)
≈ marks a conversion by molar mass, not a printed value.

Columns and labels:
Test in all cases: Broth microdilution MIC in CAMHB
Assay type in all cases: cell-based
E. coli AG100 = conditions: Escherichia coli; MHB; wild-type parent strain E. coli AG100; read-out: Minimum Inhibitory Concentration, E. coli AG100
Procedure: (§1) Example III: In Vitro Antibacterial Assays
(§2) To determine the ability of test compounds to inhibit the growth of bacterial strains, classic cell based broth microdilution minimum inhibitory concentration (MIC) assays were employed. MIC assays are performed according to CLSI methods except where otherwise noted (CLSI, 2018 and CLSI, 2019). The reference type strain E. coli ATCC 25922; the wild-type parent strain E. coli AG100; the hyper-permeable E. coli 901C and E. coli D22; and the E. coli AG100A strain lacking the acrAB efflux pump encoding genes were used to determine the ability of the PBP inhibitors to penetrate the outer membrane of gram-negative bacteria and inhibit bacterial growth. […] The P. aeruginosa ATCC 27853 and A. baumannii ATCC 19606, along with the hyper-permeable P. aeruginosa ATCC 35151 and an engineered efflux pump-compromised strain of P. aeruginosa (ΔmexAB-oprM) were used to determine the ability of PBP inhibitors to penetrate the outer membrane of P. aeruginosa and A. baumannii and assess antibacterial activity against these important gram-negative organisms.
(§3) Briefly, cryo-preserved bacterial cultures of challenge strains are streaked for isolation on appropriate agar medium, in this case cation-adjusted Mueller Hinton agar. Following incubation to allow growth of the colonies, plates are sealed with parafilm and stored refrigerated for up to two weeks. For preparation of assay inoculum and to ensure low variability, at least 5 colonies are picked from the agar plates with an inoculating loop and aseptically transferred to a culture tube containing 3 mL of cation-adjusted Mueller Hinton broth (CAMHB). The broth culture is grown for 3-5 hours at 37° C. with shaking at 200 rpm. Meanwhile, 2-fold serial dilutions of test compounds are conducted in a 96-well plate with a final volume of 75 μL per well at 2-fold the final desired concentration. After the dilution plates are set up the growing cultures are then diluted in a cuvette containing CAMHB and the optical density is measured at 600 nm. The inoculum is diluted such that 75 μL of this culture in CAMHB results in a starting bacterial concentration of 2-8×10^5 CFU/mL when added to the dilution plates. The plates are incubated for 16-20 hours for Enterobacteriaceae and Pseudomonas and 20-24 hours for Acinetobacter at 37° C. The MIC values are read visually as the lowest concentration well with no bacterial growth.

P. aeruginosa ATCC 27853 = conditions: Pseudomonas aeruginosa, ATCC27853; MHB; read-out: Minimum Inhibitory Concentration, P. aeruginosa ATCC 27853
Procedure: as §1, §2, §3

[1] = system: K. pneumoniae SI-117 producing VIM-1; conditions: Klebsiella pneumoniae, read-out: Minimum Inhibitory Concentration, K. pneumoniae SI-117
Procedure: as §1, §2, §3

E. coli ATCC 25922 = conditions: Escherichia coli, ATCC25922; MHB; E. coli ATCC 25922; read-out: Minimum Inhibitory Concentration, E. coli 25922
Procedure: as §1, §2, §3

[2] = system: K. pneumoniae 848844 producing SHV-11 and KPC-2; conditions: Klebsiella pneumoniae, read-out: Minimum Inhibitory Concentration, K. pneumoniae 848844
Procedure: as §1, §2, §3

A. baumannii ATCC 19606 = conditions: Acinetobacter baumannii, ATCC19606; MHB; read-out: Minimum Inhibitory Concentration, A. baumannii ATCC 19606
Procedure: as §1, §2, §3

E. coli D22 = conditions: Escherichia coli; MHB; hyper-permeable E. coli D22; read-out: Minimum Inhibitory Concentration, E. coli D22
Procedure: as §1, §2, §3

E. coli 901C = conditions: Escherichia coli; MHB; hyper-permeable E. coli 901C; read-out: Minimum Inhibitory Concentration, E. coli 901C
Procedure: as §1, §2, §3

P. aeruginosa ATCC 35151 = conditions: Pseudomonas aeruginosa, ATCC35151; MHB; hyper-permeable strain; read-out: Minimum Inhibitory Concentration, P. aeruginosa ATCC 35151
Procedure: as §1, §2, §3

E. coli AG100A = conditions: Escherichia coli, read-out: Minimum Inhibitory Concentration, E. coli AG100A
Procedure: as §1, §2, §3

[3] = system: P. aeruginosa (ΔmexAB-oprM); conditions: Pseudomonas aeruginosa, read-out: Minimum Inhibitory Concentration, P. aeruginosa ΔmexAB-OprM
Procedure: as §1, §2, §3

[4] = system: K. pneumoniae UMM producing SHV-5 and KPC-2; conditions: Klebsiella pneumoniae, read-out: Minimum Inhibitory Concentration, K. pneumoniae UMM
Procedure: as §1, §2, §3

Row | SMILES | MIC (E. coli AG100) | MIC (P. aeruginosa ATCC 27853) | MIC [1] | MIC (E. coli ATCC 25922) | MIC [2] | MIC (A. baumannii ATCC 19606) | MIC (E. coli D22) | MIC (E. coli 901C) | MIC (P. aeruginosa ATCC 35151) | MIC (E. coli AG100A) | MIC [3] | MIC [4]
1 | C[C@H]1CN(CCF)C(=O)C(=O)N1C(=O)NC(C(=O)N[C@H]1Cc2cccc(C(=O)O)c2OB1O)c1cc(F)c(O)c(F)c1F (stereo partly drawn) [Example 248] | 32 to 64 µg/mL (≈ 52.4 to 105 µM) | > 128 µg/mL | 0.5 to 1 µg/mL (≈ 0.819 to 1.64 µM) | 8 to 16 µg/mL (≈ 13.1 to 26.2 µM) | 32 to 64 µg/mL (≈ 52.4 to 105 µM) | > 128 µg/mL | 8 to 16 µg/mL (≈ 13.1 to 26.2 µM) | > 128 µg/mL | 2 to 4 µg/mL (≈ 3.28 to 6.55 µM) | 32 to 64 µg/mL (≈ 52.4 to 105 µM) | 8 to 16 µg/mL (≈ 13.1 to 26.2 µM) | < 0.25 µg/mL
2 | NCCN1CCN(C(=O)N[C@H](C(=O)N[C@H]2Cc3cccc(C(=O)O)c3OB2O)c2c(Cl)cccc2Cl)C(=O)C1=O (single isomer, unassigned) [Example 225] | > 128 µg/mL | > 128 µg/mL | > 128 µg/mL | > 128 µg/mL | > 128 µg/mL | > 128 µg/mL | > 128 µg/mL | > 128 µg/mL | > 128 µg/mL | > 128 µg/mL | > 128 µg/mL | 32 to 64 µg/mL (≈ 54 to 108 µM)
3 | C[C@H]1CN(CCF)C(=O)C(=O)N1C(=O)N[C@@H](C(=O)N[C@H]1Cc2cccc(C(=O)O)c2OB1O)c1ccc(O)c(F)c1F [Example 241, (3R)-3-(2-(2,3-difluoro-4-hydroxyphenyl)-2-((S)-4-(2-fluoroethyl)-6-methyl-2,3-dioxopiperazine-1-carboxamido)acetamido)-2-hydroxy-3,4-dihydro-2H-benzo[e][1,2]oxaborinine-8-carboxylic acid] | 32 to 64 µg/mL (≈ 54 to 108 µM) | > 128 µg/mL | 2 to 4 µg/mL (≈ 3.38 to 6.75 µM) | 8 to 16 µg/mL (≈ 13.5 to 27 µM) | 32 to 64 µg/mL (≈ 54 to 108 µM) | > 128 µg/mL | 32 to 64 µg/mL (≈ 54 to 108 µM) | > 128 µg/mL | 2 to 4 µg/mL (≈ 3.38 to 6.75 µM) | 32 to 64 µg/mL (≈ 54 to 108 µM) | 2 to 4 µg/mL (≈ 3.38 to 6.75 µM) | < 0.25 µg/mL
4 | NC1(CN2CCN(C(=O)N[C@@H](C(=O)N[C@H]3Cc4cccc(C(=O)O)c4OB3O)c3cc(F)c(O)c(F)c3F)C(=O)C2=O)CC1 (single isomer, unassigned) [Example 244] | > 128 µg/mL | 32 to 64 µg/mL (≈ 51.7 to 103 µM) | 2 to 4 µg/mL (≈ 3.23 to 6.46 µM) | 8 to 16 µg/mL (≈ 12.9 to 25.8 µM) | 32 to 64 µg/mL (≈ 51.7 to 103 µM) | > 128 µg/mL | 32 to 64 µg/mL (≈ 51.7 to 103 µM) | > 128 µg/mL | < 0.25 µg/mL | 32 to 64 µg/mL (≈ 51.7 to 103 µM) | 2 to 4 µg/mL (≈ 3.23 to 6.46 µM) | < 0.25 µg/mL
